Where “and” joins values, the source holds several entries; their conditions need not be identical. Equal entries are not always repeated. Inconclusive results and toxic doses are left out. Rule for the calls: active = survival T/C of 150% or more; inactive = T/C below 125% in these data.
Tested on: P388 leukemia ip, CD2F1 mice, survival T/C
Assay: NCI In Vivo Anticancer Drug Screen. Data for tumor model P388 Leukemia (intraperitoneal) in CD2F1 (CDF1) mice
Conditions: endpoint: median survival time, higher = longer survival
Method in brief: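 Mice carrying the transplanted tumor received test compound or vehicle. Survival was recorded in each group, and the value is the treated-group measurement divided by that of the vehicle-treated control group.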

[1] = dose: 60.0 mg/kg/injection, schedule: Q01DX005 (ip), vehicle: saline with Tween-80
[2] = dose: 120.0 mg/kg/injection, schedule: Q01DX005 (ip), vehicle: saline with Tween-80
[3] = dose: 240.0 mg/kg/injection, schedule: Q01DX005 (ip), vehicle: saline with Tween-80
[4] = dose: 100.0 mg/kg/injection, schedule: Q01DX001 (ip), vehicle: Klucel (hydroxypropylcellulose) (HPC)
[5] = dose: 200.0 mg/kg/injection, schedule: Q01DX001 (ip), vehicle: Klucel (hydroxypropylcellulose) (HPC)
[6] = dose: 400.0 mg/kg/injection, schedule: Q01DX001 (ip), vehicle: Klucel (hydroxypropylcellulose) (HPC)
[7] = dose: 50.0 mg/kg/injection, schedule: Q01DX005 (ip), vehicle: saline
[8] = dose: 100.0 mg/kg/injection, schedule: Q01DX005 (ip), vehicle: saline
[9] = dose: 200.0 mg/kg/injection, schedule: Q01DX005 (ip), vehicle: saline
[10] = dose: 50.0 mg/kg/injection, schedule: Q01DX005 (ip), vehicle: saline with Tween-80
[11] = dose: 100.0 mg/kg/injection, schedule: Q01DX005 (ip), vehicle: saline with Tween-80
[12] = dose: 50.0 mg/kg/injection, schedule: Q01DX005 (ip), vehicle: Klucel (hydroxypropylcellulose) (HPC)
[13] = dose: 100.0 mg/kg/injection, schedule: Q01DX005 (ip), vehicle: Klucel (hydroxypropylcellulose) (HPC)
[14] = dose: 200.0 mg/kg/injection, schedule: Q01DX005 (ip), vehicle: Klucel (hydroxypropylcellulose) (HPC)
[15] = dose: 100.0 mg/kg/injection, schedule: Q04DX003 (ip), vehicle: saline
[16] = dose: 400.0 mg/kg/injection, schedule: Q04DX003 (ip), vehicle: saline
[17] = dose: 50.0 mg/kg/injection, schedule: Q01DX009 (ip), vehicle: saline
[18] = dose: 100.0 mg/kg/injection, schedule: Q01DX009 (ip), vehicle: saline
[19] = dose: 100.0 mg/kg/injection, schedule: Q01DX001 (ip), vehicle: saline with Tween-80
[20] = dose: 200.0 mg/kg/injection, schedule: Q01DX001 (ip), vehicle: saline with Tween-80
[21] = dose: 400.0 mg/kg/injection, schedule: Q01DX001 (ip), vehicle: saline with Tween-80
[22] = dose: 100.0 mg/kg/injection, schedule: Q01DX009 (ip), vehicle: saline with Tween-80

Measured: T/C

CC1=C(/C=C/C(C)=C/C=C/C(C)=C/C=C/C=C(C)/C=C/C=C(C)/C=C/C2=C(C)C(=O)CCC2(C)C)C(C)(C)CCC1=O
inactive: [1] 98 % of control | [2] 88 % of control | [3] 91 % of control

O=C(O)c1c(Cl)n(-c2ccccc2)c2c(C(=O)O)cccc12
inactive: [4] 97 % of control | [5] 97 % of control | [6] 97 % of control

CCCC(C)N(CC)CCNc1cc(OC)cc2cccnc12 (configuration not stated)
inactive: [7] 106 % of control | [8] 88 % of control

CSC(=NC(=O)c1c(Cl)cccc1Cl)SC
inactive: [1] 102 % of control | [2] 100 % of control | [3] 90 % of control

CN(C)C1C(=O)C(C(=O)NCNCCC(=O)O)=C(O)C2(O)C(=O)C3=C(O)c4c(O)cccc4C(C)(O)C3CC12 (configuration not stated)
inactive: [7] 101 % of control | [8] 94 % of control | [9] 101 % of control

CCNC(=O)C(C)O (configuration not stated)
inactive: [7] 102 % of control | [8] 102 % of control | [9] 98 % of control

OC(C[n+]1ccccc1)c1ccc2c(c1)OCO2 (configuration not stated)
inactive: [10] 106 % of control | [11] 97 % of control

O=c1oc2c(c3c1CCCC3)c(=O)[nH]c1ccccc12
inactive: [12] 111 % of control | [13] 116 % of control | [14] 115 % of control

Cc1ccc(S(=O)(=O)CC2CCc3ccccc3C2=O)cc1 (configuration not stated)
inactive: dose: 100.0 mg/kg/injection, schedule: Q04DX002 (ip), vehicle: saline 107 % of control | dose: 200.0 mg/kg/injection, schedule: Q04DX002 (ip), vehicle: saline 101 % of control | dose: 400.0 mg/kg/injection, schedule: Q04DX002 (ip), vehicle: saline 104 % of control

O=c1[nH]c(-c2ccncc2)nnc1-c1ccc(Cl)cc1
inactive: dose: 100.0 mg/kg/injection, schedule: Q04DX002 (ip), vehicle: saline with Tween-80 88 % of control | dose: 200.0 mg/kg/injection, schedule: Q04DX002 (ip), vehicle: saline with Tween-80 93 % of control

COc1ccc2c(Br)c(NC(C)=O)ccc2c1Br
inactive: dose: 25.0 mg/kg/injection, schedule: Q04DX003 (ip), vehicle: saline 100 % of control | dose: 50.0 mg/kg/injection, schedule: Q04DX003 (ip), vehicle: saline 96 % of control | [15] 98 % of control and 96 % of control | [16] 95 % of control

O=C1c2[nH]cnc2N(Cc2ccc(Cl)cc2)C2=NCCN12
inactive: [12] 102 % of control | [13] 100 % of control

CC1(C)OCC2OCOC(C3CC(=O)NC(=O)C3)C2O1 (configuration not stated)
inactive: dose: 100.0 mg/kg/injection, schedule: Q04DX002 (ip), vehicle: suspension in saline 102 % of control | dose: 200.0 mg/kg/injection, schedule: Q04DX002 (ip), vehicle: suspension in saline 100 % of control | dose: 400.0 mg/kg/injection, schedule: Q04DX002 (ip), vehicle: suspension in saline 102 % of control

Cc1cc2ccccc2nc1-c1ccncc1
inactive: dose: 25.0 mg/kg/injection, schedule: Q04DX002 (ip), vehicle: Klucel (hydroxypropylcellulose) (HPC) 96 % of control | dose: 50.0 mg/kg/injection, schedule: Q04DX002 (ip), vehicle: Klucel (hydroxypropylcellulose) (HPC) 96 % of control | dose: 100.0 mg/kg/injection, schedule: Q04DX002 (ip), vehicle: Klucel (hydroxypropylcellulose) (HPC) 101 % of control | dose: 200.0 mg/kg/injection, schedule: Q04DX002 (ip), vehicle: Klucel (hydroxypropylcellulose) (HPC) 103 % of control

Cn1c(=O)[nH]n(C2Cn3c(=O)n(C)c(=O)n3-c3ccccc32)c1=O (configuration not stated)
inactive: [12] 115 % of control | [13] 99 % of control | [14] 96 % of control

Cc1[nH]c2cc3c(cc2c(=O)c1Cc1c(C)[nH]c2cc4c(cc2c1=O)CCCC4)CCCC3
inactive: [4] 87 % of control | [5] 88 % of control | [6] 87 % of control

COc1ccccc1C1COC(c2ccccc2)(c2ccccc2)S1 (configuration not stated)
inactive: dose: 25.0 mg/kg/injection, schedule: Q01DX009 (ip), vehicle: saline 108 % of control | [17] 108 % of control | [18] 108 % of control

S=C(Nc1ccccc1)SCc1ccc(Cl)cc1
inactive: [17] 104 % of control | [18] 103 % of control | dose: 200.0 mg/kg/injection, schedule: Q01DX009 (ip), vehicle: saline 108 % of control

COc1ccc(NC2=C(Cl)C(=O)C(Nc3ccc(OC)cc3)=C(Cl)C2=O)cc1
inactive: [10] 95 % of control | [11] 97 % of control | dose: 200.0 mg/kg/injection, schedule: Q01DX005 (ip), vehicle: saline with Tween-80 98 % of control

Cc1cccc(N2C(=O)C=C(NCc3nc4ccccc4[nH]3)C2c2ccccc2)c1 (configuration not stated)
inactive: [12] 104 % of control | [13] 100 % of control | [14] 100 % of control

COC(=O)C1(C)CCCC2(C)c3cc(OC)ccc3C3(CC12)SCCS3 (configuration not stated)
inactive: dose: 10.0 mg/kg/injection, schedule: Q01DX009 (ip), vehicle: saline with Tween-80 95 % of control | dose: 20.0 mg/kg/injection, schedule: Q01DX009 (ip), vehicle: saline with Tween-80 99 % of control | dose: 40.0 mg/kg/injection, schedule: Q01DX009 (ip), vehicle: saline with Tween-80 103 % of control

CNC(=O)OCc1c(C)sc(-c2ccccc2)c1COC(=O)NC
inactive: dose: 12.5 mg/kg/injection, schedule: Q01DX005 (ip), vehicle: distilled water + Tween-80 93 % of control | dose: 25.0 mg/kg/injection, schedule: Q01DX005 (ip), vehicle: distilled water + Tween-80 95 % of control | dose: 50.0 mg/kg/injection, schedule: Q01DX005 (ip), vehicle: distilled water + Tween-80 98 % of control | dose: 100.0 mg/kg/injection, schedule: Q01DX005 (ip), vehicle: distilled water + Tween-80 86 % of control

CCN(CC)CCSc1ccccc1
inactive: [12] 100 % of control | [13] 102 % of control

O=C1C(c2ccccc2)=S=C2C=Cc3ccccc3N12
inactive: [19] 109 % of control | [20] 111 % of control | [21] 116 % of control

COc1cccc(-c2c(C#N)c(=O)n(C)c3nncn23)c1
inactive: [19] 97 % of control | [20] 94 % of control | [21] 91 % of control

CCOC(=O)CCC(C)(C#N)c1ccccc1 (configuration not stated)
inactive: dose: 12.5 mg/kg/injection, schedule: Q01DX009 (ip), vehicle: saline with Tween-80 94 % of control | dose: 25.0 mg/kg/injection, schedule: Q01DX009 (ip), vehicle: saline with Tween-80 99 % of control | dose: 50.0 mg/kg/injection, schedule: Q01DX009 (ip), vehicle: saline with Tween-80 103 % of control | [22] 87 % of control

CN(C)c1ccc(/C=N/NC(=O)C(O)(c2ccccc2)c2ccccc2)cc1
inactive: [1] 102 % of control | [2] 102 % of control | [3] 96 % of control

Cc1cccc(C(=O)O)n1
inactive: [15] 104 % of control | dose: 200.0 mg/kg/injection, schedule: Q04DX003 (ip), vehicle: saline 100 % of control | [16] 109 % of control

COC(=O)c1ccc(SSc2ccc(C(=O)OC)cc2[N+](=O)[O-])c([N+](=O)[O-])c1
inactive: [22] 91 % of control | dose: 100.0 mg/kg/injection, schedule: Q04DX003 (ip), vehicle: saline with Tween-80 90 % of control | dose: 200.0 mg/kg/injection, schedule: Q01DX009 (ip), vehicle: saline with Tween-80 100 % of control | dose: 200.0 mg/kg/injection, schedule: Q04DX003 (ip), vehicle: saline with Tween-80 95 % of control | dose: 400.0 mg/kg/injection, schedule: Q01DX009 (ip), vehicle: saline with Tween-80 91 % of control | dose: 400.0 mg/kg/injection, schedule: Q04DX003 (ip), vehicle: saline with Tween-80 90 % of control

O=C(NCc1nc2ncc(Br)cc2[nH]1)c1ccccc1
inactive: [19] 100 % of control | [20] 100 % of control | [21] 98 % of control

From PubChem BioAssay AID330 (DTP/NCI, 2004)
